Experimental data published in patent publication US8653237B2, “Peptide analogues” (MannKind Corporation, priority 2005, dated 2014).
Each block holds one molecule with its values, some of them ahead of it. Square brackets hold non-standard residues; d marks the D form. Peptide text beside a SMILES is read from it. Cha = N[C@@H](CC1CCCCC1)C(=O)O

How the values were obtained:
HLA-A*0201 [1] = target: T1, HLA-A*0201 (Homo sapiens, UniProt P04439, D140Y/D185E/D98H/E176V/E277Q/G131W/G231S/I119V/I121R/I166T/I218V/L300P/L318F/N151K/N90K/P208A/P217A/Q86G/Q94H/R138H/R169H/T345S); experiment: Peptide binding using T2 cells (affinity to HLA-A*0201); set-up: endogenous in cells; host or cells: T2 cells; conditions: peptide concentration giving 50% of the saturation signal on T2 cells
[2] = tested on: T cell lines against natural epitope SSX-241-49; experiment: Cross-reactivity and functional avidity: IFN-gamma production by T cell lines raised against natural SSX-2 41-49; format: cell-based, HHD transgenic mice; conditions: T cells raised against native SSX-2 41-49 stimulated with analog, native = 1, lower = more active
HLA-A*0201 [3] = target: T1, HLA-A*0201; experiment: iTopia affinity assay (ED50); format: binding
Description: Avidin-coated microtiter plates containing class I monomer loaded with a so-called placeholder peptide were used to evaluate peptide binding, affinity and off-rate. The monomer-coated plates were supplied as part of the iTopia Epitope Discovery System Kit (Beckman Coulter, Inc., San Diego, Calif., USA). Assay buffers, anti-MHC-FITC mAb and beta2-microglobulin and control peptides were also supplied with the kits.
Plates were read on the fluorometer. Sigmoidal dose response curves were generated using Prism software.

[4] = tested on: T cell line specific for the native epitope PRAME425-433; experiment: Cross-reactivity: IFN-gamma secretion from T cell line specific for native PRAME425-433; format: cell-based, HHD transgenic mice; conditions: analog peptide at approximately 0.304 (so in the source); normalized to native peptide
Protocol: At 7 days after the last boost, the mice were sacrificed and a suspension of splenocytes prepared at 5×10^6 […] cells/ml in complete HL-1 medium. Cells were incubated with different concentrations of peptide for 48 hours in flat-bottomed 96-well plates (200 μl/well) and for an additional 24 hours with rIL-2 at 10 U/ml added to the wells. The supernatant was harvested and the concentration of IFN-gamma assessed by standard methods such as ELISA.
The analogs listed in FIGS. 26-28 were tested for various properties such as improved affinity and stability of binding, cross-reactivity with the native epitope, and immunogenicity as follows in Examples 40-48. […] The observed affinities of the analogs are reported as % binding (compared to the positive control) and ED50, and stability of binding as half time of dissociation. Cross reactivity with the native epitope was assessed by using the analog peptides to stimulate IFN-gamma secretion from a T cell line specific for the native epitope, essentially as described in Example 6. The data shown in FIGS. 26-28 were generated by stimulating with analog peptide at approximately 0.304. […] In some cases, the reported values are the average of two determinations.

Half-maximal Binding (HLA-A*0201 [1]): N/B
Molecule: CC[C@H](C)[C@H](NC(=O)[C@H](CCCCN)NC(=O)[C@H](CCC(=O)O)NC(=O)[C@H](CO)NC(=O)[C@H](Cc1cccc2ccccc12)NC(=O)[C@@H](N)CCCCN)C(=O)N[C@@H](Cc1ccccc1)C(=O)N[C@@H](Cc1ccc(O)cc1)C(=O)N[C@H](C(=O)O)C(C)C [SSX2 41-49 (A42(Nal-1)), KNal-1SEKIFYV]

Half-maximal Binding (HLA-A*0201 [1]): N/B
Molecule: CC[C@H](C)[C@H](NC(=O)[C@H](CCCCN)NC(=O)[C@H](CCC(=O)O)NC(=O)[C@H](CO)NC(=O)[C@H](C)NC(=O)[C@@H](N)CC1CCCCC1)C(=O)N[C@@H](Cc1ccccc1)C(=O)N[C@@H](Cc1ccc(O)cc1)C(=O)N[C@H](C(=O)O)C(C)C [SSX2 41-49 (K41(Cha))] (H-[Cha]ASEKIFYV-OH)

Molecule: CC[C@H](C)[C@H](NC(=O)[C@H](CCCCN)NC(=O)[C@H](CCC(=O)O)NC(=O)[C@H](CO)NC(=O)[C@@H](NC(=O)[C@@H](N)Cc1ccccc1)C(C)C)C(=O)N[C@@H](Cc1ccccc1)C(=O)N[C@@H](Cc1ccc(O)cc1)C(=O)N(C)[C@H](C(=O)O)C(C)C [SSX2 41-49 (K41F, A42V, V49MeVal)]
Cross-reactivity and fct avidity (native to analogs) [2]: 10

Binding affinity (ED50) relative to native peptide (in words) (HLA-A*0201 [3]): reduced by almost 6-fold
Molecule: Lys P1 analog: PRAME425-433 analog with Lys substituted for the Ser at the P1 position (KLLQHLIGL; UniProt P78395 425-433, looked up, variant S425K)
IFN-γ elicited, relative to native peptide [4]: 40%
